Target: T1, ASGPR (Homo sapiens, UniProt P07306)
T1 sequence (P07306 1-291): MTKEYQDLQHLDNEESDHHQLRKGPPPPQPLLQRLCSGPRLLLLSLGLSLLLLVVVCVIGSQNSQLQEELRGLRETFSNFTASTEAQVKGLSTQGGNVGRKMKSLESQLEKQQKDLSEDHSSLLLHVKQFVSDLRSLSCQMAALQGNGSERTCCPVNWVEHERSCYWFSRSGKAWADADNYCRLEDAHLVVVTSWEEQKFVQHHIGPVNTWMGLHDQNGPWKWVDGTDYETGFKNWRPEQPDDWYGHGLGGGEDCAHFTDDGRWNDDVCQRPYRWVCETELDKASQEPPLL
Experiment: Affinity to ASGPR by surface plasmon resonance (SPR)

Q: How did the Kd turn out when C=CCO[C@H]1O[C@H](Cn2cc(-c3cccc(OC)c3)nn2)[C@H](O)[C@H](O)[C@H]1NC(=O)C(F)(F)F [A57, N-((2S,3R,4R,5R,6R)-2-(allyloxy)-4,5-dihydroxy-6-((4-(3-methoxyphenyl)-1H-1,2,3-triazol-1-yl)methyl)tetrahydro-2H-pyran-3-yl)-2,2,2-trifluoroacetamide] was run?
A: 1 to 10 µM

Q: For CCOC(=O)c1ccc(Cl)nc1N[C@H]1[C@H]2OC[C@](CO)(O2)[C@H](O)[C@@H]1O [A112, ethyl 6-chloro-2-(((1S,2R,3R,4R,5S)-2,3-dihydroxy-1-(hydroxymethyl)-6,8-dioxabicyclo[3.2.1]octan-4-yl)amino)nicotinate], which Kd is on record?
A: 1 to 10 µM

Q: For CN(C)C[C@H]1OC[C@H](Nc2cncc(C(F)(F)F)n2)[C@@H](O)[C@H]1O [A126], which Kd is on record?
A: < 1 µM

Q: How did the Kd turn out when O=C(O)COCCOCCOCC(=O)NC(COCCC(=O)NCCOCCOCCOCCOC[C@H]1OC[C@H](Nc2nccc(C(F)(F)F)n2)[C@@H](O)[C@H]1O)COCCC(=O)NCCOCCOCCOCCOC[C@H]1OC[C@H](Nc2nccc(C(F)(F)F)n2)[C@@H](O)[C@H]1O [A23, 1-((2R,3R,4R,5S)-3,4-dihydroxy-5-((4-(trifluoromethyl)pyrimidin-2-yl)amino)tetrahydro-2H-pyran-2-yl)-20-(1-((2R,3R,4R,5S)-3,4-dihydroxy-5-((4-(trifluoromethyl)pyrimidin-2-yl)amino)tetrahydro-2H-pyran-2-yl)-15-oxo-2,5,8,11,18-pentaoxa-14-azanonadecan-19-yl)-15,22-dioxo-2,5,8,11,18,24,27,30-octaoxa-14,21-diazadotriacontan-32-oic acid] was run?
A: < 0.1 µM

Q: Which Kd does the source give for [N-]=[N+]=NCCCCCC(=O)NC(COCc1cn(CCOCCOCCOCCOC[C@H]2OC[C@H](Nc3nccc(C(F)(F)F)n3)[C@@H](O)[C@H]2O)nn1)COCc1cn(CCOCCOCCOCCOC[C@H]2OC[C@H](Nc3nccc(C(F)(F)F)n3)[C@@H](O)[C@H]2O)nn1 [A15, 6-azido-N-(1,3-bis((1-(1-((2R,3R,4R,5S)-3,4-dihydroxy-5-((4-(trifluoromethyl)pyrimidin-2-yl)amino)tetrahydro-2H-pyran-2-yl)-2,5,8,11-tetraoxatridecan-13-yl)-1H-1,2,3-triazol-4-yl)methoxy)propan-2-yl)hexanamide] here?
A: < 0.1 µM

Q: With OC[C@@]12CO[C@@H](O1)[C@H](Nc1ncc3c(C(F)(F)F)n[nH]c3n1)[C@@H](O)[C@H]2O [A37, (1S,2R,3R,4R,5S)-1-(hydroxymethyl)-4-((3-(trifluoromethyl)-1H-pyrazolo[3,4-d]pyrimidin-6-yl)amino)-6,8-dioxabicyclo[3.2.1]octane-2,3-diol] as the compound, how does the Kd read?
A: > 20 µM

Q: For C=CCO[C@H]1O[C@H](CO)[C@H](O)[C@H](O)[C@H]1N [A52, (2R,3R,4R,5R,6S)-6-(allyloxy)-5-amino-2-(hydroxymethyl)tetrahydro-2H-pyran-3,4-diol], which Kd is on record?
A: > 20 µM

Q: O=C(CCOCc1ccc(-c2cccc3ccncc23)c(OCCc2ccc(-c3cccc4ccncc34)cc2)c1)NCCOCCOCCOCCOC[C@@]12CO[C@@H](O1)[C@H](Nc1cncc(C(F)(F)F)n1)[C@@H](O)[C@H]2O [Compound 56] was tested. Which Kd did it give?
A: < 0.1 µM

Q: For C[C@@H]1O[C@H](CO)[C@H](O)[C@H](O)[C@H]1Nc1nccc(C(F)(F)F)n1 [A55, (2R,3R,4R,5R,6S)-2-(hydroxymethyl)-6-methyl-5-((4-(trifluoromethyl)pyrimidin-2-yl)amino)tetrahydro-2H-pyran-3,4-diol], which Kd is on record?
A: 10 to 100 µM
